Source: ChEMBL document CHEMBL2396587, “Synthesis, in vitro, and in cell studies of a new series of [indoline-3,2'-thiazolidine]-based p53 modulators” (J Med Chem, 2013)
One block for each compound: values may come before it. Calls of active or inactive are those of the source. The calls are words filed in the database; no cut-off is given here.

Experiments:
HT-29 = experiment: Cytotoxicity against human HT-29 cells after 24 hrs by MTT assay; assay type: functional, cell-based; conditions: HT-29, 24 h
MCF7 [1] = experiment: cells; conditions: Homo sapiens, MCF7, 24 h
Description: Cytotoxicity against human MCF7 cells after 24 hrs by MTT assay

[2] = Cytotoxicity against human HGF cells after 24 hrs by MTT assay; assay type: cell-based
[3] = Cytotoxicity against human Calu cells after 24 hrs by MTT assay; assay type: functional, cell-based
U-937 = experiment: Cytotoxicity against human U937 cells after 24 hrs by MTT assay; assay type: functional, cell-based; conditions: U-937, 24 h
HepG2 = experiment: cells; conditions: Homo sapiens, HepG2, 24 h
Description: Cytotoxicity against human HepG2 cells after 24 hrs by MTT assay

PC-3 = experiment: cells; conditions: Homo sapiens, PC-3, 24 h
Description: Cytotoxicity against human PC3 cells after 24 hrs by MTT assay

[4] = Cytotoxicity against human C643 cells after 24 hrs by MTT assay; conditions: C643, 24 h
MCF7 [5] = experiment: Cell cycle arrest in human MCF7 cells assessed as accumulation at G2M phase at 50 to 5000 nM after 24 hrs by propidium iodide staining-based FACS analysis relative to control; assay type: functional
MCF7 [6] = experiment: Cell cycle arrest in human MCF7 cells assessed as accumulation at S phase at 50 to 5000 nM after 24 hrs by propidium iodide staining-based FACS analysis relative to control; assay type: functional
MCF7 [7] = experiment: Cell cycle arrest in human MCF7 cells assessed as accumulation at G1 phase at 50 to 5000 nM after 24 hrs by propidium iodide staining-based FACS analysis relative to control; assay type: functional
MCF7 [8] = experiment: Induction of apoptosis in human MCF7 cells assessed as cytochrome C release at 50 nM after 72 hrs by Western blotting analysis; assay type: functional, cell-based
MCF7 [9] = experiment: Induction of apoptosis in human MCF7 cells assessed as increase in Bcl-xS expression level at 50 nM after 24 to 72 hrs by Western blotting analysis; assay type: functional, cell-based
MCF7 [10] = experiment: Induction of apoptosis in human MCF7 cells assessed as reduction in Bcl-xL expression level at 50 nM after 24 to 72 hrs by Western blotting analysis; assay type: functional, cell-based
MCF7 [11] = experiment: Induction of apoptosis in human MCF7 cells assessed as increase in p27 expression level at 50 nM by Western blotting analysis; assay type: functional, cell-based; conditions: TDE = time-dependent effect
MCF7 [12] = experiment: Induction of apoptosis in human MCF7 cells assessed as increase in p21 expression level at 50 nM by Western blotting analysis; assay type: functional, cell-based; conditions: TDE = time-dependent effect
MCF7 [13] = experiment: Induction of apoptosis in human MCF7 cells assessed as increase in p53 expression level at 50 nM by Western blotting analysis; assay type: functional, cell-based; conditions: TDE = time-dependent effect
MCF7 [14] = experiment: Induction of apoptosis in human MCF7 cells assessed as early apoptotic cells at 50 nM after 72 hrs by annexin V-FITC/propidium iodide staining based FACS flow cytometry (reference value: 4 %); assay type: functional
MCF7 [15] = experiment: Induction of apoptosis in human MCF7 cells assessed as early apoptotic cells at 50 nM after 48 hrs by annexin V-FITC/propidium iodide staining based FACS flow cytometry (reference value: 4 %); assay type: functional
MCF7 [16] = experiment: Induction of apoptosis in human MCF7 cells assessed as accumulation at subG1 phase at 50 nM by propidium iodide staining-based FACS analysis; assay type: functional, cell-based; conditions: TDE = time-dependent effect
MCF7 [17] = experiment: Cell cycle arrest in human MCF7 cells assessed as accumulation at G2M phase at 50 nM after 24 to 72 hrs by propidium iodide staining-based FACS analysis relative to control; assay type: functional
MCF7 [18] = experiment: Cell cycle arrest in human MCF7 cells assessed as accumulation at S phase at 50 nM after 24 to 72 hrs by propidium iodide staining-based FACS analysis relative to control; assay type: functional
MCF7 [19] = experiment: Cell cycle arrest in human MCF7 cells assessed as accumulation at G1 phase at 50 nM after 24 to 72 hrs by propidium iodide staining-based FACS analysis relative to control; assay type: functional
[20] = target: T1, Tumour suppressor p53/oncoprotein Mdm2 (Homo sapiens) (UniProt P04637+Q00987); experiment: Inhibition of MDM2-p53 interaction in human MCF7 cells after 72 hrs by immunoprecipitation assay; assay type: cell-based
[21] = target: T1, Tumour suppressor p53/oncoprotein Mdm2 (Homo sapiens); experiment: Inhibition of MDM2-p53 interaction in human MCF7 cells assessed as reduction in p53 level bound to MDM2 after 24 to 48 hrs by immunoprecipitation assay; assay type: cell-based
[22] = target: T1, Tumour suppressor p53/oncoprotein Mdm2 (Homo sapiens); experiment: Inhibition of MDM2-p53 interaction in human MCF7 cells assessed as MDM2 accumulation at 50 nM after 24 to 72 hrs by Western blot analysis; assay type: cell-based
[23] = target: T1, Tumour suppressor p53/oncoprotein Mdm2 (Homo sapiens); experiment: Inhibition of MDM2-p53 interaction in human MCF7 cells assessed as p53 accumulation at 50 nM after 24 to 72 hrs by Western blot analysis; assay type: cell-based
[24] = Ratio of Doxorubicin IC50 to compound IC50 against human Calu cells; assay type: functional
MCF7 [25] = experiment: Induction of apoptosis in human MCF7 cells assessed as accumulation of caspase-3 cleavage product at 50 nM after 24 to 72 hrs by Western blotting analysis

T1 sequence (P04637 whole entry, looked up): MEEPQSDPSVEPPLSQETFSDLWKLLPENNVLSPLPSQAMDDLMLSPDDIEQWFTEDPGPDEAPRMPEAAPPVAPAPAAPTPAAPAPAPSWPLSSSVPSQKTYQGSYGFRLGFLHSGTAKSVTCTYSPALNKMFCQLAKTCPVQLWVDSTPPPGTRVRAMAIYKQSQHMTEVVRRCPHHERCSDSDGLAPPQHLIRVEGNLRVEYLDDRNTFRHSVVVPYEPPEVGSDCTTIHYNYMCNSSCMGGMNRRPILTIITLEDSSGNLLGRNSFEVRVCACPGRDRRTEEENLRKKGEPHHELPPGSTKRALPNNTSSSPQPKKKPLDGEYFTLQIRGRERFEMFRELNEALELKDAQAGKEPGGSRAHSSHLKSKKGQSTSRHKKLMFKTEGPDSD
T1 sequence (Q00987 whole entry, looked up): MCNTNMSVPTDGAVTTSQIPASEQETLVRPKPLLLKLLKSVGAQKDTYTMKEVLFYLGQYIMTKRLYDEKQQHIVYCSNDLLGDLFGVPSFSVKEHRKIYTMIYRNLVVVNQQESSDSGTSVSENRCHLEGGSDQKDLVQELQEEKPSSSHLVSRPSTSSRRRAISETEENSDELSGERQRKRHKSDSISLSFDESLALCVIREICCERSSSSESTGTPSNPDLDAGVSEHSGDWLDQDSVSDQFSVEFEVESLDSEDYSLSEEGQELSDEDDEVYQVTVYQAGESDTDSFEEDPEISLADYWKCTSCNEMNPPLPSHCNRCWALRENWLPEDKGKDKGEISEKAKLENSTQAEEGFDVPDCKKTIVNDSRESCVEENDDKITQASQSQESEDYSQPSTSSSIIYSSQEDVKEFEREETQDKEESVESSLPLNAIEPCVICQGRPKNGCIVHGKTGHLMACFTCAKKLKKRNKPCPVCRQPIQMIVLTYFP

IC50 (MCF7 [1]): 1.2 µM
Compound: CCOC(=O)[C@@H]1CS[C@@]2(C(=O)N(C)c3ccc(C)cc32)N1C(=O)C1CCCCC1 (mixture of isomers)
IC50 (HT-29): 1.1 µM

IC50 (MCF7 [1]): 4.52 µM
Compound: CCOC(=O)[C@@H]1CS[C@@]2(C(=O)N(C)c3ccccc32)N1C(=O)c1ccc(Cl)cc1
IC50 (HT-29): 0.18 µM

IC50 (MCF7 [1]): 0.15 µM
Compound: CCOC(=O)[C@@H]1CS[C@]2(N1)C(=O)N(C(=O)c1ccc(Cl)cc1)c1ccc(Br)cc12
IC50 (HT-29): 0.02 µM

IC50 (MCF7 [1]): 1.01 µM
Compound: CCOC(=O)[C@@H]1CS[C@]2(N1)C(=O)N(C(=O)c1ccc(Cl)cc1)c1ccccc12
IC50 (HT-29): 1.03 µM

IC50 (MCF7 [1]): 0.22 µM
Compound: CCOC(=O)[C@@H]1CS[C@@]2(C(=O)Nc3ccc(Br)cc32)N1C(=O)C1CCCCC1 (mixture of isomers)
IC50 (HT-29): 0.56 µM

IC50 (MCF7 [1]): 1.23 µM
Compound: CCOC(=O)[C@@H]1CS[C@@]2(C(=O)N(C)c3ccc(C)cc32)N1C(=O)c1ccc(Cl)cc1
IC50 (HT-29): 0.12 µM

IC50 (HepG2): 0.08 µM
IC50 (PC-3): 0.75 µM
Compound: COc1cccc2c1C(=O)c1c(O)c3c(c(O)c1C2=O)C[C@@](O)(C(=O)CO)C[C@@H]3O[C@H]1C[C@H](N)[C@H](O)[C@H](C)O1 [DOXORUBICIN]
IC50 [2]: 0.5 µM
IC50 [3]: 1.81 µM
IC50 (U-937): 0.12 µM

IC50 (MCF7 [1]): 3 µM
Compound: CCOC(=O)[C@@H]1CS[C@]2(C(=O)Nc3ccc(Br)cc32)N1C(=O)c1ccc(Cl)cc1
IC50 (HT-29): 2 µM

Compound: O=C1C2CSC3(C(=O)Nc4ccccc43)N2C(=O)N1Cc1ccc(Cl)cc1 (configuration not stated)
IC50 (HT-29): 1.6 µM
IC50 (MCF7 [1]): 1.21 µM

IC50 (MCF7 [1]): 0.31 µM
Compound: CCOC(=O)[C@@H]1CS[C@@]2(C(=O)N(C)c3ccc(Br)cc32)N1C(=O)c1ccccc1
IC50 (HT-29): 0.21 µM

IC50 (MCF7 [1]): > 5 µM
Compound: CCOC(=O)[C@@H]1CS[C@@]2(C(=O)Nc3ccccc32)N1C(=O)Cc1ccc(Cl)cc1
IC50 (HT-29): 1 µM

IC50 (MCF7 [1]): 2.15 µM
Compound: CCOC(=O)[C@@H]1CS[C@@]2(C(=O)Nc3ccccc32)N1C(=O)c1ccc(Cl)cc1
IC50 (HT-29): 3.69 µM

IC50 (MCF7 [1]): 3.46 µM
Compound: CCOC(=O)[C@@H]1CS[C@]2(N1)C(=O)N(C(=O)c1ccc(Cl)cc1)c1ccc(C)cc12
IC50 (HT-29): 0.23 µM

IC50 (MCF7 [1]): 0.06 µM
Compound: CCOC(=O)[C@@H]1CS[C@@]2(C(=O)N(C)c3ccc(Br)cc32)N1C(=O)c1ccc(C)cc1
IC50 (HT-29): 0.09 µM

IC50 (MCF7 [1]): 4.81 µM
Compound: CCOC(=O)[C@@H]1CS[C@@]2(C(=O)Nc3ccc(C)cc32)N1C(=O)Cc1ccc(Cl)cc1
IC50 (HT-29): 0.78 µM

IC50 (HepG2): 10.2 µM
IC50 (PC-3): 30.3 µM
IC50 (MCF7 [1]): 2.9 µM
Compound: COc1ccc(C2=N[C@@H](c3ccc(Cl)cc3)[C@@H](c3ccc(Cl)cc3)N2C(=O)N2CCNC(=O)C2)c(OC(C)C)c1 (relative stereo) [NUTLIN-3]
IC50 [2]: 1.4 µM
IC50 [4]: 23 µM
IC50 [3]: 27.2 µM
IC50 (U-937): 15.6 µM

IC50 (MCF7 [1]): 2.01 µM
Compound: CN1C(=O)[C@@]2(SC[C@@H](C(=O)O)N2C(=O)C2CCCCC2)c2cc(Br)ccc21 (mixture of isomers)
IC50 (HT-29): 1.9 µM

IC50 (MCF7 [1]): 0.86 µM
Compound: CCOC(=O)C1=N[C@@]2(SC1)C(=O)N(C(=O)c1ccc(Cl)cc1)c1ccc(Br)cc12 (single isomer, unassigned)
IC50 (HT-29): 0.2 µM

Compound: CCOC(=O)C1=N[C@@]2(SC1)C(=O)N(C(=O)C1CCCCC1)c1ccc(Br)cc12
IC50 (HT-29): 0.85 µM

IC50 (MCF7 [1]): 2.3 µM
Compound: CCOC(=O)[C@@H]1CS[C@@]2(C(=O)N(C)c3ccccc32)N1C(=O)C1CCCCC1 (mixture of isomers)
IC50 (HT-29): 1.9 µM

IC50 (MCF7 [1]): 2.12 µM
Compound: CCOC(=O)[C@@H]1CS[C@@]2(C(=O)Nc3ccc(C)cc32)N1C(=O)c1ccc(Cl)cc1
IC50 (HT-29): 1.09 µM

Compound: CCOC(=O)[C@@H]1CS[C@]2(N1)C(=O)N(C(=O)C1CCCCC1)c1ccc(Br)cc12
IC50 (HT-29): 1.4 µM

inhibition [20]: inactive
inhibition [21]: Active
inhibition [22]: Active
inhibition [23]: Active
IC50 (HepG2): 0.14 µM
IC50 (PC-3): 0.41 µM
IC50 (MCF7 [1]): 0.04 µM
Compound: CCOC(=O)[C@@H]1CS[C@@]2(C(=O)N(C)c3ccc(Br)cc32)N1C(=O)C1CCCCC1 (mixture of isomers)
Activity (MCF7 [5]): inactive
Activity (MCF7 [6]): inactive
Activity (MCF7 [7]): inactive
Activity (MCF7 [8]): Active
Activity (MCF7 [9]): Active
Activity (MCF7 [10]): Active
Activity (MCF7 [11]): tde
Activity (MCF7 [12]): tde
Activity (MCF7 [13]): tde
Activity (MCF7 [14]): 12%
Activity (MCF7 [15]): 10%
Activity (MCF7 [16]): tde
Activity (MCF7 [17]): inactive
Activity (MCF7 [18]): inactive
Activity (MCF7 [19]): inactive
Ratio IC50 [24]: 18
IC50 [2]: 1.6 µM
IC50 [4]: 0.55 µM
IC50 [3]: 0.1 µM
IC50 (HT-29): 0.07 µM
IC50 (U-937): 0.07 µM
Activity (MCF7 [25]): Active

IC50 (MCF7 [1]): 0.27 µM
Compound: CCOC(=O)[C@@H]1CS[C@@]2(C(=O)N(C)c3ccc(Br)cc32)N1C(=O)Cc1ccc(Cl)cc1
IC50 (HT-29): 0.36 µM

IC50 (MCF7 [1]): 0.9 µM
Compound: CCOC(=O)[C@@H]1CS[C@@]2(C(=O)Nc3ccc(Br)cc32)N1C(=O)c1ccc(Cl)cc1
IC50 (HT-29): 0.11 µM

IC50 (MCF7 [1]): 0.52 µM
Compound: CCOC(=O)[C@@H]1CS[C@@]2(C(=O)N(C)c3ccc(Br)cc32)N1C(=O)c1ccc(Cl)cc1
IC50 (HT-29): 0.08 µM

IC50 (MCF7 [1]): 2.9 µM
Compound: CCOC(=O)[C@@H]1CS[C@@]2(C(=O)Nc3ccc(Br)cc32)N1C(=O)Cc1ccc(Cl)cc1
IC50 (HT-29): 0.66 µM
